target: T1, Capsid scaffolding protein (Human cytomegalovirus (strain AD169) (HHV-5) (Human herpesvirus 5), UniProt P16753); assay: Inhibitory activity against human cytomegalovirus (HCMV) protease was evaluated; parameters: species or system Human betaherpesvirus 5
T1 sequence (P16753 whole entry): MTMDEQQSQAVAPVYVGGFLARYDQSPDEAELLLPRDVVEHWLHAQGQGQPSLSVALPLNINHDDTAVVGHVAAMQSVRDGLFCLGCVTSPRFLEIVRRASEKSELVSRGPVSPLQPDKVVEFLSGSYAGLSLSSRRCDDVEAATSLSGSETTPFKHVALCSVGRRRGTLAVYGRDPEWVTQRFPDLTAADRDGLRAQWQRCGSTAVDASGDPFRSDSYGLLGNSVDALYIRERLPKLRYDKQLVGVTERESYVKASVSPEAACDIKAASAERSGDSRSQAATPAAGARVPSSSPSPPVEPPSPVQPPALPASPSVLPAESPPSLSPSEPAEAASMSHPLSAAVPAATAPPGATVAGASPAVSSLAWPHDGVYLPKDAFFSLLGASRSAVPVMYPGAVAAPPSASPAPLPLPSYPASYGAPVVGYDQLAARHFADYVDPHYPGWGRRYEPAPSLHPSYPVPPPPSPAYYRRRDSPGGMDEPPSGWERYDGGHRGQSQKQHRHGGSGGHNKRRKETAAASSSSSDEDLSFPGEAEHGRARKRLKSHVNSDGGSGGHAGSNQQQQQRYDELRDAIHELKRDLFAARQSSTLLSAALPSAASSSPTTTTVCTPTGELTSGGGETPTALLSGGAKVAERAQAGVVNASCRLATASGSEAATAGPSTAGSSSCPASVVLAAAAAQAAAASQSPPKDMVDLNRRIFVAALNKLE

SMILES | IC50
Cc1cccc2c1C(=O)C=C(c1ccc([N+](=O)[O-])cc1)S2(=O)=O | 100 nM
O=C1C=C(c2cc[n+]([O-])cc2)S(=O)(=O)c2ccccc21 | 600 nM
O=c1cc(-c2ccccc2)sc2ccccc12 | > 34000 nM
CCOC(=O)c1ccc2c(c1)C(=O)C=C(c1ccc([N+](=O)[O-])cc1)S2(=O)=O | 180 nM
CS(=O)(=O)c1ccc(C2=CC(=O)c3ccccc3S2(=O)=O)cc1 | 100 nM
O=C1C=C(c2ccncc2)S(=O)(=O)c2ccccc21 | 100 nM
Cc1cccc2c1S(=O)(=O)C(c1ccc([N+](=O)[O-])cc1)=CC2=O | 110 nM
O=C1C=C(c2cccs2)S(=O)(=O)c2ccccc21 | 460 nM
O=C1C=C(c2cccnc2)S(=O)(=O)c2ccccc21 | 200 nM
O=c1cc(-c2cccnc2)sc2ccccc12 | > 34000 nM
CC(C)c1cccc2c1S(=O)(=O)C(c1ccc([N+](=O)[O-])cc1)=CC2=O | 180 nM
CC(C)(C)C1=CC(=O)c2ccccc2S1(=O)=O | > 34000 nM
CS(=O)(=O)c1ccc(-c2cc(=O)c3ccccc3s2)cc1 | > 34000 nM
O=c1cc(-c2ccccc2)[s+]([O-])c2ccccc12 (stereo not given) | 10000 nM
O=C1C=C(c2ccsc2)S(=O)(=O)c2ccccc21 | > 34000 nM
CCCCCCCC1=CC(=O)c2ccccc2S1(=O)=O | 1400 nM
O=C1C=C(c2ccccc2)S(=O)(=O)c2ccccc21 | 1500 nM
O=C1C=C(c2ccc[n+]([O-])c2)S(=O)(=O)c2ccccc21 | 600 nM
O=C1C=C(c2ccc(-c3ccccc3)cc2)S(=O)(=O)c2ccccc21 | 60 nM
O=C1C=C(c2ccc([N+](=O)[O-])cc2)S(=O)(=O)c2ccccc21 | 60 nM

From ChEMBL document CHEMBL1130727, “Benzothiopyran-4-one based reversible inhibitors of the human cytomegalovirus (HCMV) protease” (Bioorg Med Chem Lett, 1998)
